The text below walks through data of article PMC7802075 (ACS Infectious Diseases, 2020).

Structures can show the parent of a compound that is named as a salt.

For one test, the target named is T1, LmjIPCS (inositol phosphorylceramide synthase from L. major) (Leishmania major, UniProt E9AFX2).
T1 sequence (E9AFX2 1-338): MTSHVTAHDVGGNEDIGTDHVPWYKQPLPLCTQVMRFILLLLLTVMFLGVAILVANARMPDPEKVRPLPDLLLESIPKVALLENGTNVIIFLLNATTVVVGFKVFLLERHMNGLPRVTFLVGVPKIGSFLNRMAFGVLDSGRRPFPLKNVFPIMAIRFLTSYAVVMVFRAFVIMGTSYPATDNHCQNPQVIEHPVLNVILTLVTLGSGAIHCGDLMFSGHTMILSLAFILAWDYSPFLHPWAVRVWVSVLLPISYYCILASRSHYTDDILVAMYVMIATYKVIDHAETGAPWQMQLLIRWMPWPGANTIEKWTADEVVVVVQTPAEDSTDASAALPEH
In words: biochemical. It counts as biochemical. Set-up: inhibition: dose or concentration left out as unconfirmed.
Details: not given
On to `N=C(N)NC(=O)c1nc(Cl)c(N)nc1N` [AMILORIDE], for which the “20mM inhibition LmjIPCS” value came to 52%.

Regarding `CCC1(c2ccc(N)cc2)CCC(=O)NC1=O` (stereo not shown) [AMINOGLUTETHIMIDE], the “20mM inhibition LmjIPCS” value is listed as 56%.

For `NCC(O)CC(=O)O` (stereo not shown) [AMINOHYDROXYBUTYRIC ACID], the “20mM inhibition LmjIPCS” value was 4%.

On to `Nc1ccncc1` [AMINOPYRIDINE], for which the “20mM inhibition LmjIPCS” value is given as -4.7%.

On to `Nc1ccc(C(=O)O)c(O)c1` [AMINOSALICYLATE SODIUM], for which the “20mM inhibition LmjIPCS” value is listed as 43%.

On to `Cc1ccc(/N=C/N(C)/C=N/c2ccc(C)cc2C)c(C)c1` [AMITRAZ], for which the “20mM inhibition LmjIPCS” value is on record as 55%.

As for `CCN(CC)Cc1cc(Nc2ccnc3cc(Cl)ccc23)ccc1O` [AMODIAQUINE], the “20mM inhibition LmjIPCS” value came out at 59%.

As to `CC1(C)S[C@@H]2[C@H](NC(=O)[C@H](N)c3ccc(O)cc3)C(=O)N2[C@H]1C(=O)O` [AMOXICILLIN], the “20mM inhibition LmjIPCS” value came to 41%.

Regarding `CCCc1ncc(C[n+]2ccccc2C)c(N)n1` [AMPROLIUM], the “20mM inhibition LmjIPCS” value amounted to 44%.

With `C[C@]12CC[C@@H](OS(=O)(=O)O)C[C@@H]1CC[C@@H]1[C@@H]2CC[C@]2(C)C(=O)CC[C@@H]12` [ANDROSTERONE Sulfate], the “20mM inhibition LmjIPCS” value came out at 33%.

With `CN1[C@H]2C[C@H](OC(=O)[C@H](CO)c3ccccc3)C[C@@H]1[C@@H](O)C2` [ANISODAMINE], the “20mM inhibition LmjIPCS” value came to 16%.

Regarding `c1ccc(CN(CC2=NCCN2)c2ccccc2)cc1` [ANTAZOLINE], the “20mM inhibition LmjIPCS” value was 61%.

For the compound `Cc1cc(=O)n(-c2ccccc2)n1C` [ANTIPYRINE], the “20mM inhibition LmjIPCS” value was found to be 36%.

As to `O=c1cc(-c2ccc(O)cc2)oc2cc(O)cc(O)c12` [APIGENIN], the “20mM inhibition LmjIPCS” value is 59%.

For the compound `O=C(CCCN1CCN(c2ccccn2)CC1)c1ccc(F)cc1` [AZAPERONE], the “20mM inhibition LmjIPCS” value is on record as 35%.

As to `Cn1cnc([N+](=O)[O-])c1Sc1ncnc2nc[nH]c12` [AZATHIOPRINE], the “20mM inhibition LmjIPCS” value worked out at 39%.

For `CCOC(=O)OC(C)OC(=O)[C@@H]1N2C(=O)[C@@H](NC(=O)[C@H](N)c3ccccc3)[C@H]2SC1(C)C` (stereo partly shown) [BACAMPICILLIN], the “20mM inhibition LmjIPCS” value is given as 48%.

For the compound `NCC(CC(=O)O)c1ccc(Cl)cc1` (stereo not shown) [BACLOFEN], the “20mM inhibition LmjIPCS” value is listed as 50%.

As for `NS(=O)(=O)c1cc2c(cc1C(F)(F)F)NC(Cc1ccccc1)NS2(=O)=O` (stereo not shown) [BENDROFUMETHIAZIDE], the “20mM inhibition LmjIPCS” value is listed as 63%.

`CC(Cc1cccc(C(F)(F)F)c1)NCCOC(=O)c1ccccc1` (stereo not shown) [BENFLUOREX]: the “20mM inhibition LmjIPCS” value is 65%.

Take `NC(CO)C(=O)NNCc1ccc(O)c(O)c1O` (stereo not shown) [BENSERAZIDE]: the “20mM inhibition LmjIPCS” value came out at 43%.

Regarding `CC(C)COCC(CN(Cc1ccccc1)c1ccccc1)N1CCCC1` (stereo not shown) [BEPRIDIL], the “20mM inhibition LmjIPCS” value came out at 61%.

Still in this test, the particulars now being: NINDS set screen, single concentration printed as 20mM.
With `CN1CCc2cccc3c2[C@H]1Cc1ccc(O)c(O)c1-3` [APOMORPHINE], the “20mM inhibition LmjIPCS” value is listed as 47%.

Regarding `O=C1C(O)=C([C@H]2CC[C@H](c3ccc(Cl)cc3)CC2)C(=O)c2ccccc21` [ATOVAQUONE], the “20mM inhibition LmjIPCS” value worked out at 46%.

As for `C#CCCCCCCCCCCCC(O)CC(O)CO` (stereo not shown) [AVOCADYNE], the “20mM inhibition LmjIPCS” value was found to be 65%.

In the case of `C#CCCCCCCCCCCCC(=O)CC(O)COC(C)=O` (stereo not shown) [AVOCADYNONE ACETATE], the “20mM inhibition LmjIPCS” value is 67%.

For `O=C(O)CCCCCCCC(=O)O` [AZELAIC ACID], the “20mM inhibition LmjIPCS” value turned out to be 38%.

Turning to `CN1CCCC(n2nc(Cc3ccc(Cl)cc3)c3ccccc3c2=O)CC1` (stereo not shown) [AZELASTINE], the “20mM inhibition LmjIPCS” value is 56%.

As to `CCOC(=O)c1ccc(N)cc1` [BENZOCAINE], the “20mM inhibition LmjIPCS” value amounted to 46%.

Turning to `NS(=O)(=O)c1cc2c(cc1Cl)N=C(CSCc1ccccc1)NS2(=O)=O` [BENZTHIAZIDE], the “20mM inhibition LmjIPCS” value was 36%.

The test is the same for the next values; noted with them: NINDS set screen; read-out: inhibition LmjIPCS.
With `NCC[C@H](O)C(=O)N[C@@H]1C[C@H](N)[C@@H](O[C@H]2O[C@H](CN)[C@@H](O)[C@H](O)[C@H]2O)[C@H](O)[C@H]1O[C@H]1O[C@H](CO)[C@@H](O)[C@H](N)[C@H]1O` [AMIKACIN], the inhibition (in general, the drop in the measured response relative to a control, in per cent) turned out to be 21%.

With `CC[C@H]1OC(=O)[C@H](C)[C@@H](O[C@H]2C[C@@](C)(OC)[C@@H](O)[C@H](C)O2)[C@H](C)[C@@H](O[C@@H]2O[C@H](C)C[C@H](N(C)C)[C@H]2O)[C@](C)(O)C[C@@H](C)CN(C)[C@H](C)[C@@H](O)[C@]1(C)O` [AZITHROMYCIN], the inhibition is 19%.

Staying with this test, now noted: read-out: 20mM inhibition LmjIPCS.
Consider `CC(=O)OCC(=O)[C@@]12OC3(CCCC3)O[C@@H]1C[C@H]1[C@@H]3CCC4=CC(=O)C=C[C@]4(C)[C@@]3(F)[C@@H](O)C[C@@]12C` [AMCINONIDE], for which the inhibition at 20000 µM was 11%.

Consider `Nc1c2ccccc2nc2ccccc12` [AMINACRINE], for which the inhibition at 20000 µM was -11%.

As to `Nc1nc(N)c2nc(CNc3ccc(C(=O)N[C@@H](CCC(=O)O)C(=O)O)cc3)cnc2n1` [AMINOPTERIN], the inhibition at 20000 µM amounted to 0.247%.

For `Nc1nccs1` [AMINOTHIAZOLE], the inhibition at 20000 µM is -32%.

Take `N#C[C@H](O[C@@H]1O[C@H](CO[C@@H]2O[C@H](CO)[C@@H](O)[C@H](O)[C@H]2O)[C@@H](O)[C@H](O)[C@H]1O)c1ccccc1` [AMYGDALIN]: the inhibition at 20000 µM is -4%.

For the compound `O=C1c2ccccc2C(=O)c2ccccc21` [ANTHRAQUINONE], the inhibition at 20000 µM amounted to 10%.

With `CN[C@@H]1[C@@H](O[C@H]2O[C@H](CO)[C@@H](N)[C@H](O)[C@H]2O)OC2C[C@@H](N)[C@@H](O[C@H]3[C@H](O)[C@@H](O)[C@H](N)C[C@@H]3N)OC2[C@@H]1O` (stereo partly shown) [APRAMYCIN], the inhibition at 20000 µM amounted to 0.0509%.

As for `COC(=O)C1=CCCN(C)C1` [ARECOLINE], the inhibition at 20000 µM was -3.74%.

With `CC(=O)Oc1ccccc1C(=O)O` [ASPIRIN], the inhibition at 20000 µM is 23%.

For the compound `CC(C)NCC(O)COc1ccc(CC(N)=O)cc1` (stereo not shown) [ATENOLOL], the inhibition at 20000 µM was -6%.

With `CC(C)c1c(C(=O)Nc2ccccc2)c(-c2ccccc2)c(-c2ccc(F)cc2)n1CC[C@@H](O)C[C@@H](O)CC(=O)O` [ATORVASTATIN], the inhibition at 20000 µM turned out to be 9.48%.

On to `C=C1[C@@H]2CC[C@H]3[C@]4(C)C[C@H](O[C@@H]5O[C@H](CO)[C@@H](OS(=O)(=O)O)[C@H](OS(=O)(=O)O)[C@H]5OC(=O)CC(C)C)C[C@@H](C(=O)O)[C@H]4CC[C@]3(C2)[C@H]1O` [ATRACTYLOSIDE], for which the inhibition at 20000 µM amounted to 18%.

In the case of `CN1[C@@H]2CC[C@H]1C[C@@H](OC(=O)C(CO)c1ccccc1)C2` (stereo partly shown) [ATROPINE], the inhibition at 20000 µM was found to be 26%.

Consider `COc1ccc(C(=O)CC(=O)c2ccc(C(C)(C)C)cc2)cc1` [AVOBENZONE], for which the inhibition at 20000 µM was 0.941%.

In the case of `C/C=C(\C)C(=O)O[C@H]1C[C@@H](OC(C)=O)[C@@]2(C(=O)OC)CO[C@H]3[C@@H](O)[C@@](C)([C@]45O[C@@]4(C)[C@H]4C[C@@H]5O[C@@H]5OC=C[C@@]54O)[C@H]4[C@]1(CO[C@]4(O)C(=O)OC)[C@@H]32` [AZADIRACHTIN], the inhibition at 20000 µM came out at 3.53%.

`[N-]=[N+]=CC(=O)OC[C@H](N)C(=O)O` [AZASERINE]: the inhibition at 20000 µM was determined as 14%.

For the compound `CC1(C)S[C@@H]2[C@H](NC(=O)[C@H](NC(=O)N3CCNC3=O)c3ccccc3)C(=O)N2[C@H]1C(=O)O` [AZLOCILLIN], the inhibition at 20000 µM is -4%.

`c1ccc(/N=N/c2ccccc2)cc1` [AZOBENZENE]: the inhibition at 20000 µM was found to be 2.28%.

In the case of `CCOC(=O)[C@H](CCc1ccccc1)N[C@H]1CCc2ccccc2N(CC(=O)O)C1=O` [BENAZEPRIL], the inhibition at 20000 µM was -0.0339%.

For the compound `O=C1c2ccccc2-c2cccc3cccc1c23` [BENZANTHRONE], the inhibition at 20000 µM worked out at 16%.

`S=C=NCc1ccccc1` [BENZYL ISOTHIOCYANATE]: the inhibition at 20000 µM amounted to 6%.

For the compound `COc1cc2c3cc1Oc1c(OC)c(OC)cc4c1[C@@H](Cc1ccc(O)c(c1)Oc1ccc(cc1)C[C@@H]3N(C)CC2)N(C)CC4` [BERBAMINE], the inhibition at 20000 µM stood at 18%.

The same test, now with this note: read-out: inhibition LmjIPCS.
Take `NCC(=O)CCC(=O)O` [AMINOLEVULINIC ACID]: the inhibition stood at 28%.

Regarding `Cc1c(N(C)C)c(=O)n(-c2ccccc2)n1C` [AMINOPHENAZONE], the inhibition is -19%.

`CC1(C)S[C@@H]2[C@H](NC(=O)[C@H](N)c3ccccc3)C(=O)N2[C@H]1C(=O)O` [AMPICILLIN]: the inhibition is 29%.

On to `C[C@@H]1CC[C@H]2[C@@H](C)C(=O)O[C@@H]3O[C@@]4(C)CC[C@@H]1[C@]32OO4` [ARTEMISININ], for which the inhibition was 1.06%.

For `Nc1ncn([C@@H]2O[C@H](CO)[C@@H](O)[C@H]2O)c(=O)n1` [AZACITIDINE], the inhibition is 12%.

`O=c1cc(-c2ccccc2)oc2cc(O)c(O)c(O)c12` [BAICALEIN]: the inhibition turned out to be 32%.

As to `CC1(C)S[C@@H]2[C@H](NC(=O)Cc3ccccc3)C(=O)N2[C@H]1C(=O)O` [BENZYL PENICILLIN], the inhibition was found to be 21%.

Turning to `COc1ccc2cc3[n+](cc2c1OC)CCc1cc2c(cc1-3)OCO2` [BERBERINE], the inhibition worked out at 6%.

For the compound `COc1c2ccoc2cc2oc(=O)ccc12` [BERGAPTEN], the inhibition turned out to be 17%.

The same test, now with this note: screening of NINDS set, sheet Screen 1; read-out: inhibition LmjIPCS.
Turning to `Nc1ccc(C(=O)NCC(=O)O)cc1` [AMINOHIPPURIC ACID], the inhibition is 7%.

On to `CN(C)CCCO[C@@H]1[C@H]2OC(C)(C)O[C@H]2O[C@@H]1[C@H](O)CO` [AMIPRILOSE], for which the inhibition stood at 4%.

`COc1ccc(C2C(=O)c3ccccc3C2=O)cc1` [ANISINDIONE]: the inhibition came out at 10%.

The same test, now with this note: single concentration 20mM as printed; screening of NINDS set, sheet Screen 1.
In the case of `NC1(C(=O)O)CC1` [AMINOCYCLOPROPANECARBOXYLIC ACID], the “20mM inhibition LmjIPCS” value came to 9%.
